Tests used:
[1] = molecular target: T1, aspartic acid endopeptidase (Legumain) (Homo sapiens, UniProt Q99538); experiment: Enzymatic cleavage (digestion) efficiency of linkers; format: biochemical; conditions: linker cleaved by Legumain
T1 sequence (Q99538 18-323): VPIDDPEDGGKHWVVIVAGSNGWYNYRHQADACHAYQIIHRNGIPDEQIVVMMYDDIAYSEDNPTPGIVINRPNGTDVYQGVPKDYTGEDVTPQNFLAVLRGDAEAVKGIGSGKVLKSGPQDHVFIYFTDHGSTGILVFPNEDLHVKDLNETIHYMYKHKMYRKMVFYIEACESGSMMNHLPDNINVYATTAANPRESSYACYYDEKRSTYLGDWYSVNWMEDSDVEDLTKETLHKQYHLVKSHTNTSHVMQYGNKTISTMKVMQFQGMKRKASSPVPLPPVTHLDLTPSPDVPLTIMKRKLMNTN
Description: (§1) The specific aspartic acid endopeptidase (Legumain) enzyme substrate peptide was ligated to different types of carbohydrates, and the stability and enzymatic cleavage efficiency of the resulting linker were tested, and a strong activation was predicted.

[2] = Stability of carbohydrate-linked enzyme substrate peptide linkers; format: physicochemical; conditions: linker: carbohydrate linked to the enzyme substrate peptide
Description: as §1

D121 lung cancer cells = experiment: D121 lung cancer immunotherapy model; conditions: for Tumor inhibition rate/% (week 7) / CD8: CD45 (%): single agent; for Tumor inhibition rate/% (week 7): i.v. ⅙ MTD once a week for 4 weeks; for CD8: CD45 (%): tumor CD8+ T cells among CD45-positive cells
Description: (1) D121 lung cancer cells purchased from ATCC were cultured in DMEM medium containing 10% fetal bovine serum at 37° C. and 5% CO2, and the cells were digested with EDTA trypsin according to routine use, and passed two to three times a week for placement.
(2) Animals: C57 BALB/C mice, 6-8 weeks old, female, weighing about 18-22 g, purchased from Shanghai SLAC Laboratory Animal Co., Ltd.
3) Immunization: Mice were intraperitoneally injected with 100 μL of 5×10^5 D121 lung cancer cells that died by repeated freeze-thaw cycles, and immunized 3 times with an interval of 2 weeks.
4) Cell seeding: Collect the tumor cells in logarithmic growth phase, adjust the D121 cell concentration to (1×10^7/ml) with DMEM basal medium, 0.1 ml of the cell suspension was inoculated to the right side of each mouse subcutaneously with a 1 ml syringe. […] Tumor volume was observed and measured, and the average tumor volume reached 100-200 mm^3 about 7 days after inoculation, that is, tumor cell-bearing mice were grouped and administered. The immunized group in Table 9 was immunized with D121 lung cancer cells, and the D121 dead tumor cell immunized group was injected with physiological saline as a control.
The immunosuppressive regulatory point protein Anti-PD-L1 antibody was injected twice a week. A total of two weeks.
6) Experimental observation: During the whole experiment, the use and observation of experimental animals were carried out in accordance with the regulations of AAALAC. The experimental animals were observed daily after inoculation of tumor cells, and their onset and death were recorded. During the routine experiment, all experimental animals were monitored and recorded for behavior, feeding, water intake, weight change, hair shine and other abnormalities.
(7) Analysis of tumor CD8+ T cells (T lymphocyte subsets). Tumor tissues were ground and single cancer cells were isolated by filtration using 40 μm Nylon cell strainer, lysed twice with blood cell lysis buffer for 20 min, washed twice with 1% BSA-PBS buffer, centrifuged, and resuspended, and then the cells were counted again. 1×10^5 cells were incubated with leukocyte co-antigen CD45-PE and CD8-FITC-labeled antibody for 1 hour at room temperature in the dark, and then analyzed the proportion of T lymphocyte antigen (CD8) in leukocyte common antigen (CD45)-positive cells by flow cytometry.

[3] = Solid stability, 60° C. for 10 days in the dark (HPLC); format: physicochemical; conditions: solid, 60° C., 10 days, dark; for Stability(%): content versus time 0
Description: The test was carried out by leaving it at 60° C. for 10 days in the dark. The ratio of the change in the content of the compound to the compound at time 0 was measured by HPLC, and the stability value (%) was calculated.

aspartic endopeptidase = molecular target: T2, aspartic endopeptidase (Homo sapiens, UniProt Q99538); experiment: Activation efficiency by aspartic endopeptidase (HPLC); format: biochemical; conditions: 1 mg/ml compound, enzyme 1 μmol/L, pH 6.0, 37° C., 2 hours; ratio of released product to original compound
T2 sequence (Q99538 18-323): T1 sequence (Q99538 18-323)
Description: The sample compound and a portion of the control compound (herein, all of the control compounds can be synthesized by a method similar to that described in Examples 1-3) were uniformly diluted 10-fold to 1 mg/ml with the enzyme-digesting solution. In this experiment, 1 mg/ml of the sample compound was added to the aspartic endopeptidase (1 μmol/L, pH 6.0) at 37° C. for 2 hours. After the reaction, the enzyme digest was able to release the enzyme-digested product. The decrease in the compound and the increase in the product were examined by HPLC to compare the enzyme activation efficiency (the ratio of the product released by the enzyme cleavage to the original compound).

CT26 tumor cells [4] = experiment: CT26 immunotherapy model (Example 15); format: in vivo, mice; conditions: for Cure rate % / Number of cures: 10 in each group; for Tumor inhibition rate % (Day 42): IV ⅓ MTD once a week, 6 weeks; for Recurrence rate % (Week 7): cured mice re-inoculated with CT26 cells after 50 days
Description: (§2) 1) CT26 tumor cells were purchased from ATCC, and the cells were cultured using a 10% fetal bovine serum DMEM medium at 37° C., 5% CO2. The cells were passaged every 3 days and the cells were used within 15 generations.
(§3) 2) Tumor production: 10^6 live CT26 tumor cells were injected subcutaneously into the back of tumor-immunized […], and treatment was started when the tumor grew to about 0.3-0.4 cm. The tumor size (mm^3) of the mice was recorded and compared with the solvent control group. The tumor inhibition rate on day 42 was calculated in the solvent control group.
(§4) 3) Treatment process: IV injection is used, and the drug is used at a dose of ⅓ MTD once a week Immunosuppressive IV injection treatment once a week for a total of 6 weeks of treatment.
(§5) 4) The cure rate of 10 in each group was counted. After 50 days, the cured mice and wild groups were inoculated […] to detect recurrence.

BALB/C mouse = experiment: MTD (maximum tolerated dose) acute toxicity in mice; format: in vivo; conditions: intravenous; for Number of deaths: 10 mice per group; for Death dose: observed 17 days
Source text: (§6) Test purpose: to investigate the acute toxicity of highly activated compounds by targeted site molecules of the invention by measuring the MTD (maximum tolerated dose) experiment in mice.
(§7) The injections of each drug and the control drug were uniformly dissolved using water for injection, and diluted to the corresponding dose with physiological saline during the test.
(§8) Methods and results: […] BALB/C mice, weighing 19-21 g, were randomly divided into 10 groups, with 10 mice in each group. […] A control test of the saline group and the adriamycin group injection (commercially available, Beijing Yue kang) was carried out, and the injection volume of each mouse was 0.2 ml. […] On the D3, D5, and D14, blood samples were taken for whole blood count.

[5] = as above; format: in vivo, mouse; conditions: mouse, in vivo, BALB/C mice, intravenous, observed 17 days; for MTD at 17 days: female
Source text: as §6, §7, §8

Heg2 cells = experiment: MTT cytotoxicity on Heg2 cells; format: cell-based; conditions: FIG. 3; for toxicity to Heg2 cells: 48 hours, pH 6.5, MTT; for inhibition of cancer cells versus positive controls: cell viability experiments
Description: Collect logarithmic Heg2 cells, adjust the cell suspension concentration, add 140 ul per well, and plate to adjust the density of the cells to be tested ˜5000/well; 5% CO2, incubate at 37° C. overnight, until the cell monolayer is covered with the bottom of the well (96) Condensate bottom plate), adding continuous concentration gradient to give different concentrations of compound S1, compound a and sorafenib, the drug set 9 concentration gradients, 10 ul per well, set 3 duplicate wells; 5% CO2, 37° C. PH6 0.5 incubation for 48 hours, observed under an inverted microscope; 20 μl of MTT solution (5 mg/ml, i.e. 0.5% MTT) was added to each well and incubation was continued for 4 h. The culture was terminated, and the culture solution in the well was carefully aspirated; 100 ul of dimethyl sulfoxide was added to each well, and shaken on a shaker at a low speed for 10 min to dissolve the crystals sufficiently. The absorbance of each well was measured at an enzyme-linked immunosorbent detector at OD490 nm. At the same time, zero adjustment holes (medium, MTT, dimethyl sulfoxide), control group (cell, same concentration of drug dissolution medium, medium, MTT, dimethyl sulfoxide) were set.

[6] = Drug content in tumor tissue homogenate (HPLC); format: in vivo; conditions: 10 micromoles per kilogram intravenous, tumor-bearing mice, FIG. 4
Description: Intravenous injection of 10 micromoles per kilogram of the drug into tumor-bearing mice, surgically obtained tumor tissue homogenate, and the drug content was determined by the HPLC method.

[7] = test system: Tumor-associated macrophages (M2 type); experiment: MTT toxicity on tumor-associated macrophages (M2 type); format: cell-based; conditions: 48 hours, pH 6.5, MTT, FIG. 7
Description: Tumor-associated macrophages (M2 type) induced by mononuclear bone marrow cells were collected by M-CSF (10 ng/ml), the cell suspension concentration was adjusted, 140 ul per well was added, and the cells were adjusted to a density of ˜3000 […]. 5% CO2, incubate at 37° C. overnight, until the cell monolayer is covered with the bottom of the well (96-well flat bottom plate), and then add a continuous concentration gradient to give different concentrations of the drug, the drug is set to 9 concentration gradients, 10 μl per well, set Three replicate wells; 5% CO2, incubated at 37° C., pH 6.5 for 48 hours, observed under an inverted microscope; 20 μl of MTT solution (5 mg/ml, i.e., 0.5% MTT) was added to each well and culture was continued for 4 h. The culture was terminated, and the culture solution in the well was carefully aspirated; 100 ul of dimethyl sulfoxide was added to each well, and shaken on a shaker at a low speed for 10 min to dissolve the crystals sufficiently. The absorbance of each well was measured at an enzyme-linked immunosorbent detector at OD490 nm. At the same time, zero adjustment holes (medium, MTT, dimethyl sulfoxide), control group (cell, same concentration of drug dissolution medium, medium, MTT, dimethyl sulfoxide) were set. The toxicity of the compound to tumor-associated macrophages (M2 type) was analyzed after the test. The inhibition of tumor-associated macrophages (M2 type) by different drugs was compared. […] Compound a, sorafenib, is also toxic because it is not a targeted activating drug.

CT26 tumor cells [8] = experiment: CT26 treatment model (Example 17); format: in vivo, mice; conditions: CT26 model as in Example 15
Description: as §2, §3, §4, §5
The CT26 immunotherapy model was constructed as in Example 15, and the pharmacodynamic and immunotherapeutic effects of the compounds S4-S6, S9-S12 and S15-S18 in the CT26 treatment model were tested.

[9] = Stability of sorafenib derivatives in buffer systems; format: physicochemical; conditions: weak acid, weak base and neutral buffer
Source text: In order to solve this dilemma, the present invention performs allosteric synthesis and screening of the ortho-carboxamide group of the pyridine ring in the sorafenib molecule, and obtains a special compound which satisfies both the structure-activity relationship and the release effect. That is, compound a and compound b).

CC(/N=C\[C@H](O)[C@@H](O)[C@H](O)[C@H](O)CO)C(=O)NC(C)C(=O)NC(CC(N)=O)C(=O)Nc1ccc(CO)cc1 (stereo partly drawn)
Digestion efficiency [1]: 25.5% | stability [2]: 89.6%

CC(/N=C/[C@H](O)[C@@H](O)[C@H](O)CO)C(=O)NC(C)C(=O)NC(CC(N)=O)C(=O)Nc1ccc(CO)cc1 (stereo partly drawn)
Digestion efficiency [1]: 60.4% | stability [2]: 78.9%

CC(/N=C(\CO)C(O)C(O)C(O)CO)C(=O)NC(C)C(=O)NC(CC(N)=O)C(=O)Nc1ccc(CO)cc1 (stereo not drawn)
Digestion efficiency [1]: 35.8% | stability [2]: 85.5%

C[C@H](N=C[C@H](O)[C@@H](O)[C@H](O)[C@H](O)CO)C(=O)N[C@@H](C)C(=O)N[C@@H](CC(N)=O)C(=O)Nc1ccc(COC(=O)N(C)CCNC(=O)c2cc(Oc3ccc(NC(=O)Nc4ccc(Cl)c(C(F)(F)F)c4)cc3)ccn2)cc1 [Compound C4, Glucose-AAN-PABC-Compound a, reference compound]
Tumor inhibition rate/% (week 7) (D121 lung cancer cells): 40.8% | CD8: CD45 (%) (D121 lung cancer cells; flow cytometry): 10.7% | Stability verdict (stable / unstable) [3]: unstable | Stability(%) [3]: 85.7% | Activation efficiencies (%) (aspartic endopeptidase): 46.7% | Cure rate % (CT26 tumor cells [4]): 0% | Number of cures (CT26 tumor cells [4]): 0 | Tumor inhibition rate % (Day 42) (CT26 tumor cells [4]): 36.6% | Number of deaths (BALB/C mouse): 2 | Death dose (BALB/C mouse): 90 mg/kg | MTD [5]: 80 mg/kg

CC(NC(=O)C(C)NC(=O)[C@H](O)[C@H](O)[C@@H](O[C@@H]1O[C@H](CO)[C@H](O)[C@H](O)[C@H]1O)[C@H](O)CO)C(=O)NC(CC(N)=O)C(=O)Nc1ccc(COC(=O)N(C)CCNC(=O)c2cc(Oc3ccc(NC(=O)Nc4ccc(Cl)c(C(F)(F)F)c4)cc3)ccn2)cc1 (stereo partly drawn) [Compound S1, Lacto-AAN-PABC-compound a]
Tumor inhibition rate/% (week 7) (D121 lung cancer cells): 53.4% | CD8: CD45 (%) (D121 lung cancer cells; flow cytometry): 11.0% | Stability verdict (stable / unstable) [3]: stable | Stability(%) [3]: 96.7% | Activation efficiencies (%) (aspartic endopeptidase): 86.7% | Cure rate % (CT26 tumor cells [4]): 40% | Number of cures (CT26 tumor cells [4]): 4 | Tumor inhibition rate % (Day 42) (CT26 tumor cells [4]): 94.7% | Recurrence rate % (Week 7) (CT26 tumor cells [4]): 0% | toxicity to Heg2 cells (Heg2 cells): non-toxic to normal cells | drug distribution in the tumor [6]: multiplied in the distribution of sorafenib in the tumor | Number of deaths (BALB/C mouse): 1 | Death dose (BALB/C mouse): 350 mg/kg | MTD at 17 days [5]: 300 mg/kg | toxicity to / activation by tumor-associated macrophages (M2 type) [7]: more susceptible to phagocytosis and activation by macrophages than other methods of linker

CC(NC(=O)C(C)NC(=O)[C@H](O)[C@H](O)[C@@H](O[C@@H]1O[C@H](CO)[C@H](O)[C@H](O)[C@H]1O)[C@H](O)CO)C(=O)NC(CC(N)=O)C(=O)Nc1ccc(COC(=O)N(C)CCNC(=O)c2cc(Oc3ccc(NC(=O)Nc4ccc(Cl)c(C(F)(F)F)c4)c(F)c3)ccn2)cc1 (stereo partly drawn) [Compound S2, Lacto-AAN-PABC-Compound b]
Tumor inhibition rate/% (week 7) (D121 lung cancer cells): 52.4% | CD8: CD45 (%) (D121 lung cancer cells; flow cytometry): 10.5% | Stability verdict (stable / unstable) [3]: stable | Stability(%) [3]: 99.6% | Activation efficiencies (%) (aspartic endopeptidase): 88.4% | Cure rate % (CT26 tumor cells [4]): 50% | Number of cures (CT26 tumor cells [4]): 5 | Tumor inhibition rate % (Day 42) (CT26 tumor cells [4]): 92.4% | Recurrence rate % (Week 7) (CT26 tumor cells [4]): 0% | drug distribution in the tumor [6]: multiplied in the distribution of sorafenib in the tumor | Number of deaths (BALB/C mouse): 2 | Death dose (BALB/C mouse): 350 mg/kg | MTD at 17 days [5]: 300 mg/kg

CNC(=O)c1cc(Oc2ccc(NC(=O)Nc3ccc(Cl)c(C(F)(F)F)c3)cc2)ccn1 [Sorafenib, reference compound]
effect on T cells (D121 lung cancer cells; flow cytometry, discussion of Table 6): inhibited T cells | Tumor inhibition rate/% (week 7) (D121 lung cancer cells): 24.5% | CD8: CD45 (%) (D121 lung cancer cells; flow cytometry): 6.4% | Number of deaths (BALB/C mouse): 0 | Death dose (BALB/C mouse): 12 mg/kg | MTD at 17 days [5]: 11 mg/kg | toxicity to / activation by tumor-associated macrophages (M2 type) [7]: also toxic | CD8: CD45 (%) (CT26 tumor cells [8]): 7.2% | Number of animals cured (CT26 tumor cells [8]): 0 | Tumor inhibition rate/% (at week 7) (CT26 tumor cells [8]): 15.7%

CNCCNC(=O)c1cc(Oc2ccc(NC(=O)Nc3ccc(Cl)c(C(F)(F)F)c3)cc2)ccn1 [compound a]
stability in buffer systems [9]: stable in weak acid, weak base and neutral buffer system, did not degrade | toxicity to Heg2 cells (Heg2 cells): more toxic than sorafenib | inhibition of cancer cells versus positive controls (Heg2 cells): inhibited cancer cells better than the positive control drugs sorafenib and regorafenib | toxicity to / activation by tumor-associated macrophages (M2 type) [7]: also toxic

CNCCNC(=O)c1cc(Oc2ccc(NC(=O)Nc3ccc(Cl)c(C(F)(F)F)c3)c(F)c2)ccn1 [compound b]
stability in buffer systems [9]: stable in weak acid, weak base and neutral buffer system, did not degrade | inhibition of cancer cells versus positive controls (Heg2 cells): inhibited cancer cells better than the positive control drugs sorafenib and regorafenib

PEG-Ala-Ala-ASN-PABC
Digestion efficiency [1]: 68.6% | stability [2]: 97.6%
